Reference: patent US9220676B2, “Injectable in-situ crosslinked hydrogel and methods of making and using thereof” (Bioregen Biomedical (Changzhou) Co., Ltd., priority 2008, dated 2015)

Assay: Release of corticosteroid from drug-containing in-situ crosslinked sodium hyaluronate hydrogel into phosphate buffer solution
Format: physicochemical
Conditions: for cumulative releasing percentage of the drug: 0.2 mL gel in 10 mL phosphate buffer solution, 37° C., 100 rpm, UV absorption of supernatant; for release of the drug from the gel (in words): summary of the release table
Description: Into the 10 mL thiolated sodium hyaluronate solution prepared in Example 1 (pH 7.0, 1.0% w/v), 0.1-10 mg one type of corticosteroid (e.g. Beclomethasone, Beclomethasone dipropionate, Budesonide; Dexamethasone, Prednisolone or Prednisone) was added. The solution was mix uniformly and immediately filled into a 1 mL syringe which was then sealed and kept at room temperature. It was observed after one week that the solution sealed in the syringe had lost fluidity to form a gel.
0.2 mL gel containing drug as described above was filled into a 15 mL plastic centrifugal tube; 10 mL phosphate buffer solution was added into the centrifugal tube which was then put in an incubator (37° C., 100 rpm); ultraviolet absorption of the drug in the supernatant was recorded at a certain time interval.
The cumulative releasing percentages of the drug at different times are as below: […]

Row | cumulative releasing percentage of the drug (day 7) | cumulative releasing percentage of the drug (day 14) | cumulative releasing percentage of the drug (day 21) | SMILES | release of the drug from the gel (in words)
1 | <1% | <1% | <1% | CCC(=O)OCC(=O)[C@@]1(OC(=O)CC)[C@@H](C)C[C@H]2[C@@H]3CCC4=CC(=O)C=C[C@]4(C)[C@@]3(Cl)[C@@H](O)C[C@@]21C [Beclomethasone dipropionate] | release was rarely detected
2 | 61% | 82% | 91% | C[C@H]1C[C@H]2[C@@H]3CCC4=CC(=O)C=C[C@]4(C)[C@@]3(Cl)[C@@H](O)C[C@]2(C)[C@@]1(O)C(=O)CO [Beclomethasone] | 
3 | 95% | 100% | 100% | C[C@]12C=CC(=O)C=C1CC[C@@H]1[C@@H]2[C@@H](O)C[C@@]2(C)[C@H]1CC[C@]2(O)C(=O)CO [Prednisolone] | released substantially completely in 7 days
4 | 82% | 95% | 100% | C[C@]12C=CC(=O)C=C1CC[C@@H]1[C@@H]2C(=O)C[C@@]2(C)[C@H]1CC[C@]2(O)C(=O)CO [Prednisone] | 
